Entries after “also recorded” stand apart in the source; their conditions may differ. Positions of bridges follow the written chain, without caps; N, C: chain ends. Non-standard residues stand in square brackets, D forms with d. Residues, ends and D or L forms follow the SMILES beside them. No end group written: not given here. *: point of attachment. 5FAM = O=C1OC2(c3ccc(O)cc3Oc3cc(O)ccc32)c2ccc(C(=O)*)cc21; DABCYL = 4-(dimethylaminoazo)benzene-4-carboxy; Sta = CC(C)C[C@H](N)[C@@H](O)CC(=O)O; Isovaleryl = CC(C)CC(=O)*
Columns and labels:
Format in all cases: biochemical, A. fumigatus
recombinant Asp f2 = target: T1, recombinant Asp f2 (Aspergillus fumigatus, UniProt P79017); settings: for effect of protease inhibitors on proteolytic activity of recombinant Asp f2: 50 μM inhibitor, FluHSA2 substrate
T1 construct: region fused to Asp f2 residues 32-310 (codon optimized for expression in E. coli); Trx-SMT3 N-terminal linker (thioredoxin, His6 tags, SMT3) (N, cleaved yes); made in house; host or cells: Escherichia coli
Procedure: (§1) A novel bead-based assay was developed for detecting Asp f2 proteolytic activity. […] Cyanogen bromide (CNBr)-activated sepharose beads were swelled in ice-cold HCl (1 mM). Beads (1.0 g) were incubated with 3.0 mg of 5D7A1 in Coupling Buffer (NaHCO3, 0.1 M and NaCl, 0.5 M, pH 8.3-8.5) and rotated for two hours at 22° C. or for 16 hours at 4° C. Beads were blocked with 0.1 M ethanolamine, pH 8.0, then washed with buffers of alternating pH (first with Coupling Buffer, pH 8.5, then with a low pH buffer (sodium acetate, 0.1 M, NaCl, 0.5 M, pH 4.0)). These dual washes were repeated four times. Lastly, beads were resuspended in ammonium bicarbonate (100 mM), lyophilized and stored at 4° C.
(§2) FluHSA2 comprises the peptide of SEQ ID NO:5 conjugated to 5-Fam at the alpha-amino group of the threonine at the N-terminus of the peptide and to DABCYL at the epsilon amino group of the lysine side chain at the C-terminus of the peptide. Upon excitation, the DABCYL suppresses the fluorescence emission of the 5-Fam labeled peptides when the peptides are not cleaved and the fluorescent label and DABCYL remain close together. However, when the peptide is cleaved by Asp f2, the fluorescent label and DABCYL are separated and the fluorescent label emits light energy upon excitation. For each replicate (including negative controls), 100 μL of the antibody coupled bead suspension was transferred into 0.5 mL reaction buffer (FluHSA2 (FIG. 4-5; SEQ ID NO: 5), […] sodium phosphate, 25 mM, NaCl, 100 mM, pH 7.2. Tubes were incubated in the dark for two hours at 37° C. or for 16 hours at 22° C. on a rotary shaker at 250 rpm. Fluorescence was measured at Excitation (Ex) 485 nm/Emission (Em) 535 nm in a black 96-well micro titer plate.
The fusion protein comprised an N-terminal linker (Trx-SMT3 N-terminal linker) region fused to Asp f2 residues 32-310 (codon optimized for expression in E. coli; FIG. 14) via a Ubiquitin-like-specific protease 1 (ULP1) cleavage site located between SMT3 and Asp f2. The Trx-SMT3 N-terminal linker contained the following from N- to C-terminus: thioredoxin (Trx)-glycine-serine-linker-His6-tag-linkers-another His6-tag-SMT3. Trx was added to improve solubility of the construct and a yeast SUMO (Smt3) was added to help enhance expression and promote solubility of Asp f2. Following purification using a His6-tag specific nickel-NTA column, Asp f2 was activated by cleaving the Trx-SMT3 N-terminal linker off using UPL1.
(§3) Diethylpyrocarbonate (DEPC) derivatization of histidines results in the chemical modification of histidines in proteins and is used to study the importance of histidyl residues in enzymes. Using the materials and methods described in Example 1, anti-Asp f2 (5D7A1)-bound beads were incubated with native or recombinant Asp f2 in the presence or absence of DEPC (30 μM) and incubated for one hour at 22° C. prior to reaction with FluHSA2. Samples were then incubated with 10 μM of FluHSA2 for 16 hours at 22° C. and fluorescence was measured as described above. Cleavage of FluHSA2 was detected in the presence or absence of DEPC to test the proteolytic activity of native and recombinant Asp f2.
Anti-Asp f2 (5D7A1)-bound beads were incubated with native or recombinant Asp f2 in the presence or absence of 0.5 mM zinc chloride or 50 μM of various inhibitors. Samples were incubated with FluHSA2 and fluorescence was measured as described above.

native Asp f2 [1] = target: T2, native Asp f2 (Aspergillus fumigatus, UniProt P79017); settings: for effect of protease inhibitors on proteolytic activity of native Asp f2: 50 μM inhibitor, FluHSA2 substrate
T2 construct: beads were incubated with native or recombinant Asp f2; endogenous in cells; host or cells: Aspergillus fumigatus (preparation of the native protein not described for this assay)
Procedure: as §1, §2, §3
Anti-Asp f2 (5D7A1)-bound beads were incubated with native or recombinant Asp f2 in the presence or absence of 0.5 mM zinc chloride or 50 μM of various inhibitors. Samples were incubated with FluHSA2 and fluorescence was measured as described above. […] Various Asp f2 histidine residues, including those located in the ^186HRLYH motif, were mutated to alanine (FIG. 12; H186A and H190A are located in the HRLYH motif), and mutant or wild-type Asp f2 was incubated with anti-Asp f2 (5D7A1)-bound beads as described above, followed by incubation with FluHSA2.

native Asp f2 [2] = target: T2, native Asp f2; assay: Cleavage of fluorogenic substrates by bead-bound native Asp f2
Procedure: Cleavage specificity of the novel FluHSA peptide was tested using Asp f2 and another Aspergillus protein, Asp f3. CNBr-activated sepharose beads were prepared as described in Example 1 and incubated with either the anti-Asp f2 monoclonal antibody 5D7A1 or an anti-Asp f3 rabbit polyclonal antibody. Anti-Asp f2-immobilized beads were incubated with native Asp f2 and anti-Asp f3-immobilized beads were incubated with native Asp f3. Samples were incubated with FluHSA2 (10 μM) for 16 hours at 22° C. Fluorescence was measured at Ex 485 nm/Em 535 nm in a black 96-well micro titer plate as described above.
The cleavage products of FluHSA2 after reaction with native Asp f2 were investigated by mass spectrometric analysis (MALDI spectra) (FIG. 5). Cleavage by Asp f2 occurred in the C-terminal linear tail section of the peptide resulting in at least 5 cleavage products (FIG. 5).
Peptides other than FluHSA2 were tested for cleavage by Asp f2.

[3] = DEPC 30 μM, one hour at 22° C. before FluHSA2 10 μM, 16 hours at 22° C.

T1 sequence (P79017 32-310): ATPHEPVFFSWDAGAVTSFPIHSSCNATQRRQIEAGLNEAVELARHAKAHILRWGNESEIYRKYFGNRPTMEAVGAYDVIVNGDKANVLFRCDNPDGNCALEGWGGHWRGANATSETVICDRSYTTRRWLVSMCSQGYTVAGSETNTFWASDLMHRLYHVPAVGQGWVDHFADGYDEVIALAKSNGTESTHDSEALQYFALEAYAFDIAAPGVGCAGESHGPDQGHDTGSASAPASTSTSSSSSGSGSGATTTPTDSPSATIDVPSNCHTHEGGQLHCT
T2 sequence (P79017 32-310): as above

Molecule | effect of protease inhibitors on proteolytic activity of recombinant Asp f2 (recombinant Asp f2) | effect of protease inhibitors on proteolytic activity of native Asp f2 (native Asp f2 [1]) | other results
c1cnc2c(c1)ccc1cccnc12 [1-10-phenanthroline] | suppressed | suppressed | –
CCOC(=O)OC(=O)OCC [DEPC, Diethylpyrocarbonate] | – | – | proteolytic activity of recombinant Asp f2 (cleavage of FluHSA2) in the presence of DEPC (recombinant Asp f2; [3]): inhibited; also recorded: inactive in the presence of DEPC; proteolytic activity of native Asp f2 (cleavage of FluHSA2) in the presence of DEPC (native Asp f2 [1]; [3]): inhibited; also recorded: inactive in the presence of DEPC
O=C(O)CN(CCN(CC(=O)O)CC(=O)O)CC(=O)O [EDTA, ethylenediaminetetraacetic acid] | suppressed | suppressed | –
NC(=O)CI [IAA, iodoacetamide] | did not inhibit | did not inhibit | –
O=S(=O)(F)Cc1ccccc1 [PMSF, phenylmethanesulfonylfluoride] | did not inhibit | did not inhibit | –
c1ccc(CN(CCN(Cc2ccccn2)Cc2ccccn2)Cc2ccccn2)nc1 [TPEN, N,N,N′,N′-tetrakis (2-pyridylmethyl) ethylenediamine] | suppressed | suppressed | –
CC(C)CC(=O)N[C@H](C(=O)N[C@H](C(=O)N[C@@H](CC(C)C)[C@@H](O)CC(=O)N[C@@H](C)C(=O)N[C@@H](CC(C)C)[C@@H](O)CC(=O)O)C(C)C)C(C)C [pepstatin A] (Isovaleryl-VV[Sta]A[Sta]-OH) | did not inhibit | did not inhibit | –
[5-Fam]-TKCATESAVNRRPCFSALK-[DABCYL] (5FAM-TKCATESAVNRRPCFSALK(DABCYL); disulfide 3-14 (inferred)) [FluHSA2] | – | – | number of cleavage products after reaction with native Asp f2 (MALDI) (native Asp f2 [2]): at least 5; specificity of cleavage by Asp f2 compared with Asp f3 (native Asp f2 [2]; FluHSA2 10 μM, 16 hours at 22° C.): high specificity for cleavage by Asp f2; number of cleavage sites on reaction with native Asp f2 (MALDI) (native Asp f2 [2]; sites near the C-terminus): four
aprotinin | did not inhibit | did not inhibit | –
collagen | – | – | degradation of fluorogenic protein substrate by native Asp f2 (native Asp f2 [2]; 15 μg/mL, Asp f2 enriched on 5D7A1 beads): capable of degrading
soybean trypsin inhibitor [SBTI] | did not inhibit | did not inhibit | –
